This is an account of results in PubChem BioAssay AID248 (DTP/NCI, 2004).

Molecules are shown by their SMILES. Several values for one entry are separate records, joined by “and”; a condition that tells them apart may be missing. Equal values may be shown once. Inconclusive results and toxic doses are left out.

The experiment concerns L1210 leukemia ip in BDF1 mice, survival T/C. Briefly: NCI In Vivo Anticancer Drug Screen. Data for tumor model L1210 Leukemia (intraperitoneal) in B6D2F1 (BDF1) mice. To be noted: endpoint: mean survival time, higher = longer survival. Put shortly:
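Each compound was tested against a transplantable tumor grown in mice. The endpoint was survival, with treated animals benchmarked against vehicle controls as a simple ratio.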

[1] abbreviates: dose: 100.0 mg/kg/injection, schedule: Q01DX009 (ip), vehicle: saline with Tween-80.
Setting [2] is: dose: 100.0 mg/kg/injection, schedule: Q04DX002 (ip), vehicle: saline with Tween-80.
[3] abbreviates: dose: 100.0 mg/kg/injection, schedule: Q04DX003 (ip), vehicle: saline.
The mark [4] stands for this setting: dose: 200.0 mg/kg/injection, schedule: Q01DX009 (ip), vehicle: saline with Tween-80.
Where [5] appears, read: dose: 200.0 mg/kg/injection, schedule: Q04DX002 (ip), vehicle: saline with Tween-80.
[6] abbreviates: dose: 400.0 mg/kg/injection, schedule: Q04DX002 (ip), vehicle: saline with Tween-80.
[7] abbreviates: dose: 100.0 mg/kg/injection, schedule: Q01DX009 (ip), vehicle: Klucel (hydroxypropylcellulose) (HPC).
The mark [8] stands for this setting: dose: 100.0 mg/kg/injection, schedule: Q04DX003 (ip), vehicle: Klucel (hydroxypropylcellulose) (HPC).
Where [9] appears, read: dose: 200.0 mg/kg/injection, schedule: Q01DX009 (ip), vehicle: Klucel (hydroxypropylcellulose) (HPC).
Where [10] appears, read: dose: 200.0 mg/kg/injection, schedule: Q04DX003 (ip), vehicle: Klucel (hydroxypropylcellulose) (HPC).
[11] abbreviates: dose: 400.0 mg/kg/injection, schedule: Q01DX009 (ip), vehicle: Klucel (hydroxypropylcellulose) (HPC).
Setting [12] is: dose: 400.0 mg/kg/injection, schedule: Q04DX003 (ip), vehicle: Klucel (hydroxypropylcellulose) (HPC).
The mark [13] stands for this setting: dose: 100.0 mg/kg/injection, schedule: Q01DX001 (ip), vehicle: saline.
The mark [14] stands for this setting: dose: 200.0 mg/kg/injection, schedule: Q01DX001 (ip), vehicle: saline.
Setting [15] is: dose: 100.0 mg/kg/injection, schedule: Q01DX009 (ip), vehicle: saline.

Regarding `Cc1ccc(Cl)cc1NC(=O)Nc1ccccc1C(N)=O`, the T/C (dose: 100.0 mg/kg/injection, schedule: Q01DX001 (ip), vehicle: saline with Tween-80) was 98 % of control; the T/C under setting [1] was 100 % of control and 110 % of control; the T/C under setting [2] is 93 % of control and 102 % of control; the T/C under setting [3] is 97 % of control; the T/C (dose: 200.0 mg/kg/injection, schedule: Q01DX001 (ip), vehicle: saline with Tween-80) was 92 % of control; the T/C under setting [4] was 109 % of control and 120 % of control. The T/C by setting is: under setting [5], 93 % of control and 98 % of control; (dose: 200.0 mg/kg/injection, schedule: Q04DX003 (ip), vehicle: saline) 95 % of control; (dose: 400.0 mg/kg/injection, schedule: Q01DX001 (ip), vehicle: saline with Tween-80) 101 % of control; (dose: 400.0 mg/kg/injection, schedule: Q01DX009 (ip), vehicle: saline with Tween-80) 105 % of control and 89 % of control; under setting [6], 95 % of control and 102 % of control; (dose: 400.0 mg/kg/injection, schedule: Q04DX003 (ip), vehicle: saline) 103 % of control.
Turning to `O=C(Oc1ccccc1)c1ccc(Cl)cc1`, the T/C is, setting by setting: under setting [7], 98 % of control; under setting [8], 102 % of control; under setting [9], 95 % of control; under setting [10], 101 % of control; under setting [11], 98 % of control; under setting [12], 98 % of control.
With `CC(C)CCCC(C)C1CCC2C3CC(=O)OC45CC4CCC5(C)C3CCC12C` (stereo not given), the T/C (dose: 100.0 mg/kg/injection, schedule: Q01DX001 (ip), vehicle: acetone) was 94 % of control; the T/C (dose: 100.0 mg/kg/injection, schedule: Q01DX009 (ip), vehicle: acetone) was 89 % of control; the T/C (dose: 200.0 mg/kg/injection, schedule: Q01DX001 (ip), vehicle: acetone) is 89 % of control; the T/C (dose: 200.0 mg/kg/injection, schedule: Q01DX009 (ip), vehicle: acetone) was 91 % of control; the T/C (dose: 400.0 mg/kg/injection, schedule: Q01DX001 (ip), vehicle: acetone) is 91 % of control; the T/C (dose: 400.0 mg/kg/injection, schedule: Q01DX009 (ip), vehicle: acetone) was 90 % of control.
For `CCOC(=O)C1(C(=O)OCC)CCC1`, the T/C runs as follows: under setting [13], 103 % of control; under setting [14], 94 % of control.
In the case of `Cn1c(=O)c2c(nc(OC3CCCC3)n2C)n(C)c1=O`, the T/C reads like this: (dose: 50.0 mg/kg/injection, schedule: Q01DX001 (ip), vehicle: other) 98 % of control; (dose: 100.0 mg/kg/injection, schedule: Q01DX001 (ip), vehicle: other) 98 % of control; (dose: 200.0 mg/kg/injection, schedule: Q01DX001 (ip), vehicle: other) 87 % of control.
Consider `CCCCC(CCN(C)C)(CNC(=O)CN(CC)CC)c1cccc2ccccc12` (stereo not given), for which the T/C is 91 % of control (dose: 25.0 mg/kg/injection, schedule: Q01DX009 (ip), vehicle: saline); 91 % of control (dose: 50.0 mg/kg/injection, schedule: Q01DX009 (ip), vehicle: saline); 90 % of control under setting [15]; 100 % of control under setting [3].
Regarding `O=S(=O)(O)c1ccc(N=Nc2ccc(O)c(Cl)c2)cc1`, the T/C is 94 % of control (dose: 55.0 mg/kg/injection, schedule: Q01DX Z (ip), vehicle: methylcellulose (MC)); 96 % of control (dose: 83.0 mg/kg/injection, schedule: Q01DX Z (ip), vehicle: methylcellulose (MC)); 106 % of control (dose: 125.0 mg/kg/injection, schedule: Q01DX Z (ip), vehicle: methylcellulose (MC)).
On to `CNO`, for which the T/C runs as follows: under setting [7], 100 % of control; under setting [8], 95 % of control; under setting [9], 97 % of control; under setting [10], 95 % of control; under setting [12], 109 % of control.
For `CC(C)CCC[C@@H](C)[C@H]1CC[C@H]2[C@@H]3CCC(=O)[C@](C)(CCC(=O)O)[C@H]3CC[C@]12C`, the T/C was 102 % of control (dose: 50.0 mg/kg/injection, schedule: Q04DX003 (ip), vehicle: alcohol); 98 % of control (dose: 100.0 mg/kg/injection, schedule: Q04DX003 (ip), vehicle: alcohol); 102 % of control (dose: 200.0 mg/kg/injection, schedule: Q04DX003 (ip), vehicle: alcohol).
As for `COc1ccc(C)cc1NC(=O)OCCOc1ccc(C(C)(C)C)cc1`, the T/C was 90 % of control (dose: 50.0 mg/kg/injection, schedule: Q01DX009 (ip), vehicle: saline with Tween-80); 90 % of control under setting [1]; 90 % of control under setting [4].
Take `O=C(Nc1cccc(C2=NCCCN2)c1)c1ccc(C(=O)Nc2cccc(C3=NCCCN3)c2)cc1`: the T/C (dose: 0.1 mg/kg/injection, schedule: Q01DX Z (ip), vehicle: saline) is 95 % of control; the T/C (dose: 0.2 mg/kg/injection, schedule: Q01DX Z (ip), vehicle: saline) was 100 % of control; the T/C (dose: 0.3 mg/kg/injection, schedule: Q01DX Z (ip), vehicle: saline) is 97 % of control; the T/C (dose: 0.5 mg/kg/injection, schedule: Q01DX Z (ip), vehicle: saline) was 97 % of control.
Consider `CCN(Cc1ccccc1)c1cc(=O)[nH]c(=O)[nH]1`, for which the T/C (dose: 48.0 mg/kg/injection, schedule: Q01DX001 (ip), vehicle: Klucel (hydroxypropylcellulose) (HPC)) was 100 % of control; the T/C (dose: 96.0 mg/kg/injection, schedule: Q01DX001 (ip), vehicle: Klucel (hydroxypropylcellulose) (HPC)) was 102 % of control; the T/C (dose: 192.0 mg/kg/injection, schedule: Q01DX001 (ip), vehicle: Klucel (hydroxypropylcellulose) (HPC)) is 97 % of control.
Take `CCOC(=O)/C=C/C(F)(F)C(F)(F)C(F)(F)C(F)(F)C(F)(F)C(F)(F)C(F)(F)F`: the T/C under setting [15] was 98 % of control; the T/C (dose: 200.0 mg/kg/injection, schedule: Q01DX009 (ip), vehicle: saline) was 105 % of control; the T/C (dose: 400.0 mg/kg/injection, schedule: Q01DX009 (ip), vehicle: saline) was 105 % of control.
Take `Cc1cccc2c1C(=S)NC2=O`: the T/C runs as follows: under setting [2], 103 % of control; under setting [5], 100 % of control; under setting [6], 89 % of control.
As to `CSc1ncnc2n[nH]c(Br)c12`, where the note is “dose: 100.0 mg/kg/injection, schedule: Q01DX005 (ip), vehicle: saline”, the T/C is 93 % of control.
`O=C1OCN(c2ccccc2)/C1=C/c1ccccc1`: the T/C is 89 % of control under setting [13]; 94 % of control under setting [14]; 93 % of control (dose: 400.0 mg/kg/injection, schedule: Q01DX001 (ip), vehicle: saline).
`O=C(Nc1ccc(Cl)cc1)Nc1ncccn1`: the T/C by setting is: (dose: 100.0 mg/kg/injection, schedule: Q04DX002 (ip), vehicle: Klucel (hydroxypropylcellulose) (HPC)) 96 % of control; (dose: 200.0 mg/kg/injection, schedule: Q04DX002 (ip), vehicle: Klucel (hydroxypropylcellulose) (HPC)) 93 % of control; (dose: 400.0 mg/kg/injection, schedule: Q04DX002 (ip), vehicle: Klucel (hydroxypropylcellulose) (HPC)) 96 % of control.
With `CCCCCCC/C=N\N=C(N)N`, the T/C is 97 % of control (dose: 15.0 mg/kg/injection, schedule: Q01DX Z (ip), vehicle: carboxymethylcellulose (CMC)); 97 % of control (dose: 30.0 mg/kg/injection, schedule: Q01DX Z (ip), vehicle: carboxymethylcellulose (CMC)); 101 % of control (dose: 60.0 mg/kg/injection, schedule: Q01DX Z (ip), vehicle: carboxymethylcellulose (CMC)).
As for `Cc1cc(NC(=O)Nc2ccc(C3=NCCN3)cc2)ccc1NC(=O)Nc1ccc(C2=NCCN2)cc1`, the T/C is 124 % of control (dose: 62.0 mg/kg/injection, schedule: Q01DX Z (ip), vehicle: carboxymethylcellulose (CMC)) and 151 % of control (dose: 250.0 mg/kg/injection, schedule: Q01DX Z (ip), vehicle: carboxymethylcellulose (CMC)).
For `Cc1cccc(C)c1NC(=O)Oc1ccc(Cl)cc1Cc1ccccc1`, the T/C by setting is: under setting [7], 88 % of control; under setting [9], 88 % of control; under setting [11], 102 % of control.
